Data reported in US9708338B2, “Aromatic heterocyclylamine derivative having TRPV4-inhibiting activity” (Shionogi & Co., Ltd., priority 2013, dated 2017).

How the values were obtained:
[1] = target: T1, human TRPV4 (Homo sapiens, UniProt Q9HBA0); assay: Test Example 1 Measurement of TRPV4 inhibitory activity (IC50 value); assay type: cell-based; details: CHO-K1 cells stably expressing human TRPV4; Fluo 4-AM, FLIPR TETRA; final 1 μmol/L 4α-PDD
T1 construct: expressed in transfected cells; host or cells: CHO-K1
Method: (§1) For each compound, TRPV4 inhibitory activity was measured using cells. (Method) TRPV4 inhibitory activity of the compound was evaluated in accordance with the following procedure.
(§2) (1) The TRPV4 inhibitory activity was measured using CHO-K1 cells stably expressing human TRPV4.
(2) In the day before the experimental day, frozen cell were thawed and washed with the culture medium (MEM-α, 10% FBS, 2 mmol/L GlutaMax, 50 unit Penicillin, 50 μg/mL Streptomycin, 20 mmol/L HEPES). Then cells were suspended in the culture medium.
(3) The 384-well plates which hTRPV4/CHO cells were seeded at densities of 4000 cells/well in the culture medium and cultured in a CO2 incubator in the presence of 5% CO2 at 37° C. for overnight was used as assay plates.
(4) The assay plate was washed with assay buffer (Hanks, 20 mmol/L HEPES, 2.5 mmol/L probenecid, pH 7.4), and the buffer were remained at 20 μL/well.
(5) 10 μl of dye loading buffer (9 μmol/L Fluo 4-AM, 0.09% Pluronic F-127/assay buffer) was added to each well, then the assay plate was incubated in a CO2 incubator in the presence of 5% CO2 at 37° C. for one hour (final 3 μmol/L Fluo4-AM).
(6) The assay plate was washed with the assay buffer, and the buffers were remained at 20 μL/well. Then the assay plate was incubated for 10 min at room temperature.
(7) 20 μL/well of diluted compound solution was dispensed to each well in the compound plate, and mixed with built-in Pipette and Mixer of the Fluorescence analysis system FLIPR TETRA (Molecular devices).
(8) After incubation for 5 min, 20 μL/well of 4α-PDD solution were applied to each well of assay plate and mixed with the FLIPR TETRA (final 1 μmol/L 4α-PDD).
(9) The fluorescent intensity was measured with FLIPR TETRA system for 5 min from the point of time addition the compound solution, at Ex 470-495 nm, Em 515-575 nm wavelength.
(§3) In addition, TRPV4 inhibitory activity (IC50 value) of a compound was evaluated according to the following procedure.
(10) In the presence of the compound, the difference between maximal and minimal of fluorescent intensity value for 5 min from just before addition of 4α-PDD solution was calculated, and it was referred as Max−Min value. Max−Min value of the compound A at 1 μmol/L was defined as 100% inhibitory activity, Max−Min value in the absence of the compound was defined as 0% inhibitory activity. The TRPV4 inhibitory activity of the compound was calculated by the following formula. Inhibition ratio=(1−(Max−Min value of the compound−100% inhibitory activity)/(0% inhibitory activity−100% inhibitory activity))×100
Herein, the compound A is the compound I-186 described in PCT/JP2013/058722.
(11) Inhibitory activity was calculated at 10 points with three fold serial dilution, in the final concentration of the compound from 10 μmol/L to 0.5 nmol/L, the IC50 value (nmol/L) was calculated by logistic approximation method.

[2] = Test Example 7 Metabolism stability test; assay type: in vitro ADME; details: 0.5 μmol/L of test compound, human liver microsomes 0.5 mg protein/mL, 37° C.
Method: Using commercially available pooled human hepatic microsomes, a compound of the present invention was reacted for a constant time, and a remaining rate was calculated by comparing a reacted sample and an unreacted sample, thereby, a degree of metabolism in liver was assessed.
A reaction was performed (oxidative reaction) at 37° C. for 0 minute or 30 minutes in the presence of 1 mmol/L NADPH in 0.2 mL of a buffer (50 mmol/L Tris-HCl pH 7.4, 150 mmol/L potassium chloride, 10 mmol/L magnesium chloride) containing 0.5 mg protein/mL of human liver microsomes. After the reaction, 50 μL of the reaction solution was added to 100 μL of a methanol/acetonitrile=1/1 (v/v), mixed and centrifuged at 3000 rpm for 15 minutes. The compound of the present invention in the supernatant was quantified by LC/MS/MS, and a remaining amount of the compound of the present invention after the reaction was calculated, letting a compound amount at 0 minute reaction time to be 100%. Hydrolysis reaction was performed in the absence of NADPH and glucuronidation reaction was in the presence of 5 mmol/L UDP-glucuronic acid in place of NADPH, followed by similar operations. (Result) % inhibition was shown at 0.5 μmol/L of test compound.

[3] = target: T2, human ether-a-go-go related gene (hERG) channel (Homo sapiens, UniProt Q12809); assay: Test Example 8 hERG test; assay type: cell-based; details: 1 μmol/L of test compound; CHO cells expressing hERG; whole cell patch clamp (QPatch)
T2 construct: expressed in transfected cells; host or cells: CHO
Description: For the purpose of assessing risk of an electrocardiogram QT interval prolongation of the compound of the present invention, effects of the compound of the present invention on delayed rectifier K^+ current (IKr), which plays an important role in the ventricular repolarization process, was studied using CHO cells expressing human ether-a-go-go related gene (hERG) channel.
After a cell was retained at a membrane potential of −80 mV by whole cell patch clamp method using an automated patch clamp system (QPatch; Sophion Bioscience A/S), IKr induced by depolarization pulse stimulation at +20 mV for 2 seconds and, further, repolarization pulse stimulation at −50 mV for 2 seconds, was recorded. […] From the recording IKr, an absolute value of the tail peak current was measured based on the current value at the resting membrane potential using analysis software (Falster Patch; Sophion Bioscience A/S). Further, the % inhibition relative to the tail peak current before application of the compound of the present invention was calculated, and compared with the vehicle-applied group (0.1% dimethyl sulfoxide solution) to assess influence of the compound of the present invention on IKr. […]

[4] = target: T3, CYP3A4 (Homo sapiens, UniProt P08684); assay: Test Example 3 CYP3A4 fluorescent MBI test; assay type: in vitro ADME; details: CYP3A4 expressed in Escherichia coli; substrate 7-BFC; pre-reaction time 0 or 30 minutes
T3 construct: host or cells: Escherichia coli
Method: The CYP3A4 fluorescent MBI test is a test of investigating enhancement of CYP3A4 inhibition of a compound of the present invention by a metabolism reaction, and the test was performed using, as CYP3A4 enzyme expressed in Escherichia coli and employing, as an index, a reaction in which 7-benzyloxytrifluoromethylchmarin (7-BFC) is debenzylated by the CYP3A4 enzyme to produce a metabolite, 7-hydroxytrifluoromethylchmarin (7-HFC) emitting fluorescent light.
The reaction conditions were as follows: substrate, 5.6 μmol/L 7-BFC; pre-reaction time, 0 or 30 minutes; reaction time, 15 minutes; reaction temperature, 25° C. […]
An enzyme in a K-Pi buffer (pH 7.4) and a solution of a compound of the present invention as a pre-reaction mixture were added to a 96-well plate at the above composition of the pre-reaction, a part of it was transferred to another 96-well plate so that it was 1/10 diluted by a substrate in a K-Pi buffer, NADPH as a co-factor was added to initiate a reaction as an index (without preincubation) and, after a predetermined time of a reaction, acetonitrile/0.5 mol/L Tris (trishydroxyaminomethane)=4/1 (v/v) was added to stop the reaction. […] For the plate on which each index reaction had been performed, a fluorescent value of 7-HFC which is a metabolite was measured with a fluorescent plate reader. […]

[5] = target: T1, human TRPV4; assay: Test Example 2' Measurement of TRPV4 inhibitory activity (IC50 value); assay type: cell-based; details: CHO-K1 cells stably expressing human TRPV4; DMEM 3% FBS, 3000 cells/well; final 0.15 μmol/L 4α-PDD
Method: as §1, §2
(2) In the day before the experimental day, frozen cell were thawed and washed with the culture medium (DMEM, 3% FBS, 2 mmol/L GlutaMax, 50 unit Penicillin, 50 μg/mL Streptomycin, 0.1 mmol/L Non-Essential Amino Acids, 25 mmol/L HEPES). Then cells were suspended in the culture medium. […] (7) 20 μL/well of diluted compound solution was dispensed to each well in the compound plate, and mixed with built-in Pipette and Mixer of the Fluorescence analysis system FLIPR TETRA (Molecular devices). […] (9) The fluorescent intensity was measured with FLIPR TETRA system for 5 min from the point of time addition the compound solution, at Ex 470-495 nm, Em 515-575 nm wavelength.
as §3
(10) In the presence of the compound, the difference between maximal and minimal of fluorescent intensity value for 5 min from just before addition of 4α-PDD solution was calculated, and it was referred as Max−Min value. […] The TRPV4 inhibitory activity of the compound was calculated by the following formula. […]

T1 sequence (Q9HBA0 whole entry): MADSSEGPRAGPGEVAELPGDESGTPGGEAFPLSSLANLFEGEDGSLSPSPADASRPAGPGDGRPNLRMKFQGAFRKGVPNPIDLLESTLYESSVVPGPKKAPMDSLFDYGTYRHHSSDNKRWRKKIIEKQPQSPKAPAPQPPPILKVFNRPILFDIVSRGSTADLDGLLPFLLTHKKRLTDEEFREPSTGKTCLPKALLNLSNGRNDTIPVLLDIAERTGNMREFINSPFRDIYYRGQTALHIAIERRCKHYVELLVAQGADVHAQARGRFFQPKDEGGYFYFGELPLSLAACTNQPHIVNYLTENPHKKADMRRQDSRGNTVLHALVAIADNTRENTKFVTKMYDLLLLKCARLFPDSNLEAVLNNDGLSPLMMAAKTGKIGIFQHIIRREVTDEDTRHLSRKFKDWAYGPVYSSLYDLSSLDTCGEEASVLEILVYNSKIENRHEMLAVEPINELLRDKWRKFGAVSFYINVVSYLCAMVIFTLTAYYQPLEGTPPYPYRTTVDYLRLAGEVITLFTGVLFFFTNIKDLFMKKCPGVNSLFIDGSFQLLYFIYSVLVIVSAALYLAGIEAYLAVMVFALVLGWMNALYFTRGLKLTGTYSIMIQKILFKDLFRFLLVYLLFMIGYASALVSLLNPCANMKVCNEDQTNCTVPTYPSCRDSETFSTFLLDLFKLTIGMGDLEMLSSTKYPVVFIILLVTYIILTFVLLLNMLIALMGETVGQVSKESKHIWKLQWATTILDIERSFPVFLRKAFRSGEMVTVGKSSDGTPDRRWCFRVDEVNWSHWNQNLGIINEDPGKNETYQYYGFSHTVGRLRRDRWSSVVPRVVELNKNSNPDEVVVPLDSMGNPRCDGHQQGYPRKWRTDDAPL
T2 sequence (Q12809 whole entry): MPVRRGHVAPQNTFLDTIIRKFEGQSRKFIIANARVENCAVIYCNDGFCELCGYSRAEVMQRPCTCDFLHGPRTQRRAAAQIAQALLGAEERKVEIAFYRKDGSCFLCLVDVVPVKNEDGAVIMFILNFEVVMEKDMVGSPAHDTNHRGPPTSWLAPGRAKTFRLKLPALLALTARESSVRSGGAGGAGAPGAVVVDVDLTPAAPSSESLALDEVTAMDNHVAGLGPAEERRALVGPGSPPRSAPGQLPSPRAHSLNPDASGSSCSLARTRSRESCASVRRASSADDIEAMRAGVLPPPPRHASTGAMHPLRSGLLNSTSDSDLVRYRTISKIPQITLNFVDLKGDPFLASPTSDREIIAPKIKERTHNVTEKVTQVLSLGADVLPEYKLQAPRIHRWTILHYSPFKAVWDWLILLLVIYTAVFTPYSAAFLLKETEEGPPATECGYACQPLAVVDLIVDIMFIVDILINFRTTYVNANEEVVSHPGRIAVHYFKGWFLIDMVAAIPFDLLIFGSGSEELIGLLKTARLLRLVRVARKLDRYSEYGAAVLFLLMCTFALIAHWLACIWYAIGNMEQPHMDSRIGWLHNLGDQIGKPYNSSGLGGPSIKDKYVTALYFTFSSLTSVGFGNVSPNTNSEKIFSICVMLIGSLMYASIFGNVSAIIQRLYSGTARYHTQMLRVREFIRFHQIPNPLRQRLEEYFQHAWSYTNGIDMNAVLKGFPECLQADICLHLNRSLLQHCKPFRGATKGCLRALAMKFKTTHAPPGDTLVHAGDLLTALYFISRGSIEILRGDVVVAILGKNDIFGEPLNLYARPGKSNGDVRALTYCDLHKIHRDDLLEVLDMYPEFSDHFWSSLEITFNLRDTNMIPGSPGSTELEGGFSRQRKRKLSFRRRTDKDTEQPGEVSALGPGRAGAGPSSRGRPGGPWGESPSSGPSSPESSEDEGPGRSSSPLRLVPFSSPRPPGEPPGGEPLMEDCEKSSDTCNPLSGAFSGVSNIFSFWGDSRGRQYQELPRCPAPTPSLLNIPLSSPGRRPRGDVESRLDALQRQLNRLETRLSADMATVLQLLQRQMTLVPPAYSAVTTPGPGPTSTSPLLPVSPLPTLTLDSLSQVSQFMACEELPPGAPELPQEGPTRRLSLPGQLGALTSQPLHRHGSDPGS
T3 sequence (P08684 whole entry): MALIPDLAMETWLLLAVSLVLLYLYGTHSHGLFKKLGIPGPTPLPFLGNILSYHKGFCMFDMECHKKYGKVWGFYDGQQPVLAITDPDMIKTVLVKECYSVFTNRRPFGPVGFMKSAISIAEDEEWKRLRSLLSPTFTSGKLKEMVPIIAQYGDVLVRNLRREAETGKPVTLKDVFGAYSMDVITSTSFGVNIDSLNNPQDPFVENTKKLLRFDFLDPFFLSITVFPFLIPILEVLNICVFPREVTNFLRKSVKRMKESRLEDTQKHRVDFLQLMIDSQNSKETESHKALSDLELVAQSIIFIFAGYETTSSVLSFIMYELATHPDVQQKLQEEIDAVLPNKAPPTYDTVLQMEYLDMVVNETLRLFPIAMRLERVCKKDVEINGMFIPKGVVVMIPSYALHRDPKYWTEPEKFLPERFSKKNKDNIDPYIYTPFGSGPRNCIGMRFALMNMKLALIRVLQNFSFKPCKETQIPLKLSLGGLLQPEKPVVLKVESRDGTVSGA

| SMILES | IC50 [1] | Percent of compound remaining after 30 min incubation [2] | hERG % inhibition of tail peak current (IKr) [3] | CYP3A4 fluorescent MBI: difference between IC50 values [4] | IC50 [5] |
| --- | --- | --- | --- | --- | --- |
| Cc1nc(C)c(-c2csc(Nc3ccc(CNc4ccc(Cl)cc4F)cn3)n2)s1 [Compound I-48] | 1.2 nM | 78.6% | 8.1% | – | – |
| Cc1nc(C(C)O)sc1-c1csc(Nc2ccc(CNc3ccc(Cl)cc3F)cn2)n1.Cl.Cl (stereo not shown) [Compound I-157] | 14 nM | 83.6% | – | (−) (when the difference is 3 μmol/L or less, this was defined as (−)) | – |
| Cc1nc(C)c(-c2csc(Nc3ccc(C(=O)C4CCCC4)cn3)n2)s1 [Compound I-897] | – | – | – | – | 2.8 nM |
